Species: Rattus norvegicus
Assay: Compound was tested for inhibition of mitochondrial electron transport
Type: functional

Row | Structure (SMILES) | IC50 [nM]
1 | C[C@@]1(c2ccc(Oc3ccccc3)cc2)OC(=O)N(Nc2ccccc2)C1=O [FAMOXADONE] | 11
2 | CN(c1ccccc1)N1C(=O)O[C@@](C)(c2ccc(Oc3ccccc3)cc2)C1=O | 35

From ChEMBL document CHEMBL1132873, “Synthesis and structural analysis of the active enantiomer of famoxadone, a potent inhibitor of cytochrome bc1” (Bioorg Med Chem Lett, 2000)
